According to patent US20080318938A1, “METHODS FOR TREATING ABERRANT CELL PROLIFERATION DISORDERS” (priority 2007, published 2008):

Columns and labels:
[1] = TA4-1A in plasma, brain and tumor of HCT116 tumor-bearing mice; assay type: in vivo; conditions: for Share of the therapeutic agent in brain / Share of the therapeutic agent in plasma / Share of the therapeutic agent in tumor: mice, 12.5 mg/kg IV daily 14 days, wash-out, last dose day 19
Text: In vivo experiment protocols were approved by the Animal Use and Care Committee. Female NCr nu/nu mice were purchased from Taconic Farms and group housed in a ventilated rack system on a 12/12 light cycle. All housing materials and water were autoclaved prior to use. The mice were fed ad libitum with gamma-irradiated laboratory chow and acidified water. Animals were handled under laminar-flow hoods. Animals were inoculated subcutaneously in the right flank with 5×10̂6 HCT116 cells. Tumors were monitored twice weekly and then daily as they approached the appropriate size for study. On Day 1 of the study, the animals were randomized into n=3 treatment groups with group average tumor sizes of 109 mm^3.
(§1) where w=width and 1=length in mm of the tumor. Tumor weight was estimated with the assumption that 1 mg is equivalent to 1 mm^3 of tumor volume. Mice were daily dosed with compound TA4-1A at 12.5 mg/kg (IV) during 14 days. A wash-out period ensued for four days with no dosing, and the last dose was administered after the wash-out period (day 19) at 12.5 mg/kg. At one, two and twenty-four hour time points plasma, brain and tumor samples were collected from terminal mice and frozen. It was determined that the tumor contained 35%, plasma contained 64% and brain contained 1% of the therapeutic agent after the one hour time point, and the tumor contained 74%, plasma contained 24% and brain contained 2% of the therapeutic agent after the two hour time point. At the 24 hour time point, tumor contained 17%, plasma contained 49% and brain contained 34% of the therapeutic agent. After an eight hour exposure to the agent in female and male rats, approximately 3-4% of the agent was available in the brain as compared to the amount in plasma. […] Examples of cell lines and particular brain cancers are described herein.

[2] = TA4-1A in brain compared to plasma in rats; assay type: in vivo; conditions: both sexes, rat, female and male rats, eight hour exposure, read-out: Agent available in the brain as compared to the amount in plasma
Procedure: as §1

CC(=O)N1CCN(c2nc3c(cc2F)c(=O)c(C(=O)NCCN2CCCC2)c2n(C)c4ccccc4n32)CC1 [TA4-1A]
Blood-brain barrier permeation ([1]; mice and rats, conclusion from brain levels): can permeate the blood-brain barrier to some extent | Share of the therapeutic agent in brain ([1]; 24 hour): 34% | Share of the therapeutic agent in plasma ([1]; 24 hour): 49% | Share of the therapeutic agent in tumor ([1]; 24 hour): 17% | Share of the therapeutic agent in brain ([1]; one hour): 1% | Share of the therapeutic agent in plasma ([1]; one hour): 64% | Share of the therapeutic agent in tumor ([1]; one hour): 35% | Share of the therapeutic agent in brain ([1]; two hour): 2% | Share of the therapeutic agent in plasma ([1]; two hour): 24% | Share of the therapeutic agent in tumor ([1]; two hour): 74% | Kp at 8 h [2]: 0.03 to 0.04
